Data on 27 molecules can be found in patent US20220144838A1, “Compounds as Inhibitors of Macrophage Migration Inhibitory Factor” (NANJING IMMUNOPHAGE BIOTECH CO., LTD., priority 2019, published 2022).

Where two headings read alike, the source gives them in different places.

The assay addresses T1, MIF (Homo sapiens, UniProt P14174).
T1 sequence (P14174 2-115 limits assumed): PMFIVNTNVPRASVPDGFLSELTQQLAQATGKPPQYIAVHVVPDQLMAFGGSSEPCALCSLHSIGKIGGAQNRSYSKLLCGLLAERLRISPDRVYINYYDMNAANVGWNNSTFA
As to the kind of experiment: MIF tautomerase assay using pHPP as substrate. In kind it is biochemical. As to conditions: mean of multiple test results. Put shortly: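 Cell-free keto-to-enol tautomerization of pHPP, enol product detected spectrophotometrically as borate complex. Final 3 nM MIF and 1.5 mM ketonic pHPP in DPBS/boric acid buffer with 0.025% BSA and 300 μM CHAPS, pH 6.0, room temperature; initial rates from absorbance slopes give mean pIC50.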

[1] abbreviates: inhibition of the MIF enzyme in vitro, read-out: Tautomerase Inhibition pIC50 (converted).
Where [2] appears, read: FIGS. 1-5, read-out: pIC50 MIF tautomerase activity (converted).

Turning to `Nc1nc(N2CCN(c3ccc(O)cc3)CC2)nc2c1ncn2-c1ccc(Cl)cc1` [Example 75, 4-(4-(6-amino-9-(4-chlorophenyl)-9H-purin-2-yl)piperazin-1-yl)phenol], the IC50 under setting [1] is more than 10 µM. On the same count and under the same terms, under `Cc1ccccc1-n1cnc2c(N)nc(N3CCN(c4ccc(O)cc4)CC3)nc21` [Example 76, 4-(4-(6-amino-9-(o-tolyl)-9H-purin-2-yl)piperazin-1-yl)phenol] stands more than 10 µM. Still for that read-out and setting: in the case of `Nc1nc(N2CCN(c3ccc(O)cc3)CC2)nc2c1ncn2-c1cccc(O)c1` [Example 77, 3-(6-amino-2-(4-(4-hydroxyphenyl)piperazin-1-yl)-9H-purin-9-yl)phenol] it was 1 to 9.77 µM. In the case of `Nc1nc(N2CCN(c3ccc(O)cc3)CC2)nc2c1ncn2-c1cccc(-c2ccccc2)c1` [Example 78, 4-(4-(9-([1,1′-biphenyl]-3-yl)-6-amino-9H-purin-2-yl)piperazin-1-yl)phenol], the IC50 under setting [1] was 1 to 9.77 µM. Still for that read-out and setting: under `COc1ncccc1-n1cnc2c(N)nc(N3CCN(c4ccc(O)cc4)CC3)nc21` [Example 79, 4-(4-(6-amino-9-(2-methoxypyridin-3-yl)-9H-purin-2-yl)piperazin-1-yl)phenol] stands more than 10 µM. Same read-out and setting: in the case of `COc1cc(-n2cnc3c(N)nc(N4CCN(c5ccc(O)cc5)CC4)nc32)ccn1` [Example 82, 4-(4-(6-amino-9-(2-methoxypyridin-4-yl)-9H-purin-2-yl)piperazin-1-yl)phenol] it was 0.1 to 0.977 µM; in that of `CCOc1ncccc1-n1cnc2c(N)nc(N3CCN(c4ccc(O)cc4)CC3)nc21` [Example 83, 4-(4-(6-amino-9-(2-ethoxypyridin-3-yl)-9H-purin-2-yl)piperazin-1-yl)phenol], 1 to 9.77 µM.

For the molecule `COc1ccc(-n2cnc3c(N)nc(N4CCN(c5ccc(O)cc5)CC4)nc32)c(OC)n1` [Example 84, 4-(4-(6-amino-9-(2,6-dimethoxypyridin-3-yl)-9H-purin-2-yl)piperazin-1-yl)phenol], under setting [1], the IC50 is 1 to 9.77 µM. On the same count and under the same terms, in the case of `COc1ccc(-n2cnc3c(N)nc(N4CCN(c5ccc(O)cc5)CC4)nc32)cn1` [Example 85, 4-(4-(6-amino-9-(6-methoxypyridin-3-yl)-9H-purin-2-yl)piperazin-1-yl)phenol] it was 0.1 to 0.977 µM; in that of `N#Cc1ccc(-n2cnc3c(N)nc(N4CCN(c5ccc(O)cc5)CC4)nc32)cn1` [Example 86, 5-(6-amino-2-(4-(4-hydroxyphenyl)piperazin-1-yl)-9H-purin-9-yl)picolinonitrile], 0.1 to 0.977 µM. In the case of `Cn1cc(-n2cnc3c(N)nc(N4CCN(c5ccc(O)cc5)CC4)nc32)cn1` [Example 88, 4-(4-(6-amino-9-(1-methyl-1H-pyrazol-4-yl)-9H-purin-2-yl)piperazin-1-yl)phenol], under setting [1], the IC50 was 1 to 9.77 µM.

On to `Nc1nc(N2CCN(c3ccc(O)cc3)CC2)nc2c1ncn2Cc1ccccc1` [Example 89, 4-(4-(6-amino-9-benzyl-9H-purin-2-yl)piperazin-1-yl)phenol], for which the IC50 under setting [1] is 1 to 9.77 µM. On the same count and under the same terms, under `Oc1ccc(N2CCN(c3nc(NCc4ccccc4)c4ncn(-c5cccnc5)c4n3)CC2)cc1` [Example 90, 4-(4-(6-(benzylamino)-9-(pyridin-3-yl)-9H-purin-2-yl)piperazin-1-yl)phenol] stands 1 to 9.77 µM. The same measure, in the same setting: in the case of `Oc1ccc(N2CCN(c3nc(NCCc4ccccc4)c4ncn(-c5cccnc5)c4n3)CC2)cc1` [Example 91, 4-(4-(6-(phenethylamino)-9-(pyridin-3-yl)-9H-purin-2-yl)piperazin-1-yl)phenol] it was 0.1 to 0.977 µM. On the same count and under the same terms, in the case of `Oc1ccc(N2CCN(c3nc(N4CCCC4)c4ncn(-c5cccnc5)c4n3)CC2)cc1` [Example 92, 4-(4-(9-(pyridin-3-yl)-6-(pyrrolidin-1-yl)-9H-purin-2-yl)piperazin-1-yl)phenol] it was 1 to 9.77 µM; in that of `OC[C@H]1CCCN1c1nc(N2CCN(c3ccc(O)cc3)CC2)nc2c1ncn2-c1cccnc1` [Example 93, (R)-4-(4-(6-(2-(hydroxymethyl)pyrrolidin-1-yl)-9-(pyridin-3-yl)-9H-purin-2-yl)piperazin-1-yl)phenol], 0.1 to 0.977 µM.

On to `OCC1CCN(c2nc(N3CCN(c4ccc(O)cc4)CC3)nc3c2ncn3-c2cccnc2)C1` (centres unmarked) [Example 94, 4-(4-(6-(3-(hydroxymethyl)pyrrolidin-1-yl)-9-(pyridin-3-yl)-9H-purin-2-yl)piperazin-1-yl)phenol], for which the IC50 under setting [1] was 0.1 to 0.977 µM. Still for that read-out and setting: under `Oc1ccc(N2CCN(c3nc(NC4CCCC4)c4ncn(-c5cccnc5)c4n3)CC2)cc1` [Example 96, 4-(4-(6-(cyclopentylamino)-9-(pyridin-3-yl)-9H-purin-2-yl)piperazin-1-yl)phenol] stands 1 to 9.77 µM; under `O=C(Cn1cnc2c(-n3ncc4ccccc43)nc(N3CCN(c4ccc(O)cc4)CC3)nc21)NS(=O)(=O)c1ccccc1` [Example 97, 2-(2-(4-(4-hydroxyphenyl)piperazin-1-yl)-6-(1H-indazol-1-yl)-9H-purin-9-yl)-N-(phenylsulfonyl)acetamide], 0.1 to 0.977 µM; under `O=C(Cn1cnc2c(-n3ncc4ccccc43)nc(N3CCN(c4ccc(O)cc4)CC3)nc21)NS(=O)(=O)Cc1ccccc1` [Example 98, N-(benzylsulfonyl)-2-(2-(4-(4-hydroxyphenyl)piperazin-1-yl)-6-(1H-indazol-1-yl)-9H-purin-9-yl)acetamide], 0.1 to 0.977 µM. Turning to `O=C(O)Cn1cnc2c(-n3ncc4c(C(=O)O)cccc43)nc(N3CCN(c4ccc(O)cc4)CC3)nc21` [Example 99, 1-(9-(carboxymethyl)-2-(4-(4-hydroxyphenyl)piperazin-1-yl)-9H-purin-6-yl)-1H-indazole-4-carboxylic acid], the IC50 is not above 0.1 µM under setting [2] and 0.01 to 0.0977 µM under setting [1]. For `CC(C)(C)OC(=O)Cn1cnc2c(-n3nnc4c(C(=O)O)cccc43)nc(N3CCN(c4ccc(O)cc4)CC3)nc21` [Example 100, 1-(9-(2-(tert-butoxy)-2-oxoethyl)-2-(4-(4-hydroxyphenyl)piperazin-1-yl)-9H-purin-6-yl)-1H-benzo[d][1,2,3]triazole-4-carboxylic acid] the same measures were not above 0.1 µM and 0.01 to 0.0977 µM. `COC(=O)c1ccc(-n2cnc3c(N)nc(N4CCN(c5ccc(O)cc5)CC4)nc32)cc1` [Example 101, methyl 4-(6-amino-2-(4-(4-hydroxyphenyl)piperazin-1-yl)-9H-purin-9-yl)benzoate]: the IC50 under setting [1] is 0.1 to 0.977 µM. Still for that read-out and setting: in the case of `Nc1nc(N2CCN(c3ccc(O)cc3)CC2)nc2c1ncn2-c1ccc(C(=O)O)cc1` [Example 102, 4-(6-amino-2-(4-(4-hydroxyphenyl)piperazin-1-yl) 9H-purin-9-yl)benzoic acid] it was 1 to 9.77 µM. Same read-out and setting: under `CNC(=O)c1ccc(-n2cnc3c(N)nc(N4CCN(c5ccc(O)cc5)CC4)nc32)cc1` [Example 103, 4-(6-amino-2-(4-(4-hydroxyphenyl)piperazin-1-yl)-9H-purin-9-yl)-N-methylbenzamide] stands 1 to 9.77 µM; under `O=C(O)Cn1cnc2c(-n3ncc4ccc(C(=O)O)cc43)nc(N3CCN(c4ccc(O)cc4)CC3)nc21` [Example 104, 1-(9-(carboxymethyl)-2-(4-(4-hydroxyphenyl)piperazin-1-yl)-9H-purin-6-yl)-1H-indazole-6-carboxylic acid], 1 to 9.77 µM. The same measure, in the same setting: in the case of `O=C(O)Cn1cnc2c(-n3ncc4ccc(CO)cc43)nc(N3CCN(c4ccc(O)cc4)CC3)nc21` [Example 105, 2-(6-(6-(hydroxymethyl)-1H-indazol-1-yl)-2-(4-(4-hydroxyphenyl)piperazin-1-yl)-9H-purin-9-yl)acetic acid] it was 0.1 to 0.977 µM.
